Where a name gives a salt, the structure may show the parent alone.

The subject of the first test is Staphylococcus aureus Smith. As to the kind of experiment: MIC assay, modified agar dilution (CLSI), S. aureus Smith. It counts as cell-based. The conditions noted are these: Staphylococcus aureus, agar dilution, 35° C., 16-20 hr; lowest concentration that completely inhibited growth; read-out: S_aureus_Smith_WT_MIC. On the procedure:
The potency of antibacterial agents was measured using the Minimal Inhibitory Concentration (MIC) assay. The assay measures the ability of test agents to inhibit the growth of bacteria on agar-containing medium.
The bacterial test strains used were exemplified by Staphylococcus aureus Smith, Enterococcus faecium A2373, Streptococcus pneumoniae IID554, and Escherichia coli ATCC 25922. All strains were maintained as frozen stocks held at −80° C. in skim milk. Other bacterial test strains are well known to those skilled in the art and can be used for testing.
Mueller Hinton Agar (MHA BBL; Becton Dickinson and Company, Sparks, Md.) was used as the medium. MHA was supplemented with 5% defibrinated horse blood (DHB; Nippon Biotest Laboratories inc.) to support the growth of S. pneumoniae and E. faecium.
MIC values were determined using a modified agar dilution procedure described by the Clinical and Laboratory Standards Institute (CLSI; Methods for Dilution Antimicrobial Susceptibility Tests for Bacteria That Grow Aerobically; Approved Standard—Eighth Edition. CLSI document M07-A8 [ISBN 1-56238-689-1]. Clinical and Laboratory Standards Institute, 940 West Valley Road, Suite 1400, Wayne, Pa. 19087-1898 USA, 2009).
Stock solutions (6.4 mgmL) of test compounds were prepared in 100% ultrapure dimethyl sulfoxide (DMSO; source) on the day of the assay. Subsequent serial dilutions were performed to generate solutions with concentrations ranging from 6.4 to 0.0002 mgmL in 100% DMSO.
Agar medium containing test compound was prepared by adding the dilutions of antimicrobial solution to molten MHA at a temperature of 45-50° C. The agar and antimicrobial solution were mixed thoroughly, poured into petri dishes, and allowed to solidify at room temperature. The final concentration of test compounds in the MHA medium ranged from 128 to 0.001 μg/mL with two-fold dilutions. MHA plates lacking antibacterial compound were used for growth controls.
Prior to susceptibility testing, the bacterial isolates were removed from frozen storage, thawed at room temperature, sub-cultured to MHA medium and incubated overnight at 35° C. S. pneumoniae and E. faecium were subcultured on MHA supplemented with 5% DHB at 35° C. with […]. Colonies from each plate were suspended in normal saline. This suspension was adjusted to the turbidity of a 0.5 McFarland standard, 1-2×10^8 colony forming units (CFU) per mL, and diluted 100-fold to 1-2×10^6 CFUmL.
Suspensions of bacterial cultures were applied to the surface of MHA plates containing test compound as well as to a growth control plate lacking test compound using an inoculum-replicating device with 4 mm pins. The replicating device applied 5 uL of the bacterial suspension such that each spot contained approx. 1×10^4 CFU. Plates were dried for about 40 min and incubated at 35° C. for 16-20 hr prior to scoring.
In the case of `COc1ccc2ncc(Cl)c(CC(O)C34CCC(NCc5ccc6c(n5)NC(=O)CO6)(CC3)CC4)c2n1.Cl` (single isomer, unassigned) [Example 14a, 6-((4-(2-(3-Chloro-6-methoxy-1,5-naphthyridin-4-yl)-1-hydroxyethyl)bicyclo[2.2.2]octan-1-ylamino)methyl)-2H-pyrido[3,2-b][1,4]oxazin-3(4H)-one Hydrochloride], the MIC was determined as 0.031 µg/mL.
Still for that read-out and setting: the figure for `COc1ccc2ncc(F)c(CC(N)C34CCC(NCc5ccc6c(n5)NC(=O)CO6)(CC3)CO4)c2n1` (single isomer, unassigned) [Example 21a, 6-((1-(1-Amino-2-(3-fluoro-6-methoxy-1,5-naphthyridin-4-yl)ethyl)-2-oxabicyclo[2.2.2]octan-4-ylamino)methyl)-2H-pyrido[3,2-b][1,4]oxazin-3(4H)-one Dihydrochloride] is 0.25 µg/mL.

The test is the same for the next values; noted with them: agar dilution, 35° C., 16-20 hr; lowest concentration that completely inhibited growth.
In turn, `COc1ccc2ncc(Cl)c(C(O)CC34CCC(NCc5ccc6c(n5)NC(=O)CO6)(CC3)CC4)c2n1` (single isomer, unassigned) [Example 13a, 6-((4-(2-(3-Chloro-6-methoxy-1,5-naphthyridin-4-yl)-2-hydroxyethyl)bicyclo[2.2.2]octan-1-ylamino)methyl)-2H-pyrido[3,2-b][1,4]oxazin-3(4H)-one] yielded a S_aureus_Smith_WT_MIC of 0.0310 µg/mL.
`COc1ccc2ncc(Cl)c(C(O)CC34CCC(NCc5ccc6c(n5)NC(=O)CO6)(CC3)CC4)c2n1` (single isomer, unassigned) [Example 13b, 6-((4-(2-(3-Chloro-6-methoxy-1,5-naphthyridin-4-yl)-2-hydroxyethyl)bicyclo[2.2.2]octan-1-ylamino)methyl)-2H-pyrido[3,2-b][1,4]oxazin-3(4H)-one] registered a S_aureus_Smith_WT_MIC of 0.0630 µg/mL.
The molecule `COc1ccc2ncc(Cl)c(CC(O)C34CCC(NCc5ccc6c(n5)NC(=O)CO6)(CC3)CC4)c2n1.Cl` (single isomer, unassigned) [Example 14b, 6-((4-(2-(3-Chloro-6-methoxy-1,5-naphthyridin-4-yl)-1-hydroxyethyl)bicyclo[2.2.2]octan-1-ylamino)methyl)-2H-pyrido[3,2-b][1,4]oxazin-3(4H)-one Hydrochloride] had a S_aureus_Smith_WT_MIC of 0.0310 µg/mL.
`COc1ccc2ncc(F)c(CC(O)C34CCC(NCc5ccc6c(n5)NC(=O)CO6)(CC3)CO4)c2n1.Cl` (single isomer, unassigned) [Example 20b, 6-((1-(2-(3-Fluoro-6-methoxy-1,5-naphthyridin-4-yl)-1-hydroxyethyl)-2-oxabicyclo[2.2.2]octan-4-ylamino)methyl)-2H-pyrido[3,2-b][1,4]oxazin-3(4H)-one Hydrochloride] had a S_aureus_Smith_WT_MIC of 0.0630 µg/mL.
Same read-out and setting: the figure for `COc1ccc2ccc(=O)n(CC(O)C34CCC(NCc5ccc6c(n5)NC(=O)CO6)(CC3)CO4)c2n1` (single isomer, unassigned) [Example 52a, 6-(((1-(1-Hydroxy-2-(7-methoxy-2-oxo-1,8-naphthyridin-1(2H)-yl)ethyl)-2-oxabicyclo[2.2.2]octan-4-yl)amino)methyl)-2H-pyrido[3,2-b][1,4]oxazin-3(4H)-one] is 0.0310 µg/mL; for `COc1ccc2ccc(=O)n(CC(O)C34CCC(NCc5ccc6c(n5)NC(=O)CO6)(CC3)CO4)c2n1` (single isomer, unassigned) [Example 52b, 6-(((1-(1-Hydroxy-2-(7-methoxy-2-oxo-1,8-naphthyridin-1(2H)-yl)ethyl)-2-oxabicyclo[2.2.2]octan-4-yl)amino)methyl)-2H-pyrido[3,2-b][1,4]oxazin-3(4H)-one] it is 0.0630 µg/mL.
Molecule `COc1cnc2ccc(=O)n(CC(O)C34CCC(NCc5ccc6c(n5)NC(=O)CO6)(CC3)CO4)c2c1` (single isomer, unassigned) [Example 54a, 6-(((1-(1-Hydroxy-2-(7-methoxy-2-oxo-1,5-naphthyridin-1(2H)-yl)ethyl)-2-oxabicyclo[2.2.2]octan-4-yl)amino)methyl)-2H-pyrido[3,2-b][1,4]oxazin-3(4H)-one] came in with a S_aureus_Smith_WT_MIC of 0.250 µg/mL.

Staying with this test, now noted: agar dilution, 35° C., 16-20 hr; lowest concentration that completely inhibited growth; Dihydrochloride.
Take `COc1ccc2ncc(F)c(CC(N)C34CCC(NCc5ccc6c(n5)NC(=O)CO6)(CC3)CO4)c2n1` (single isomer, unassigned) [Example 21b, 6-((1-(1-Amino-2-(3-fluoro-6-methoxy-1,5-naphthyridin-4-yl)ethyl)-2-oxabicyclo[2.2.2]octan-4-ylamino)methyl)-2H-pyrido[3,2-b][1,4]oxazin-3(4H)-one Dihydrochloride]: the S_aureus_Smith_WT_MIC is 0.125 µg/mL.

Still in this test, the particulars now being: agar dilution, 35° C., 16-20 hr; lowest concentration that completely inhibited growth; Hydrochloride.
Molecule `COc1ccc2ncc(F)c(C(O)C(O)C34CCC(NCc5ccc6c(n5)NC(=O)CO6)(CC3)CO4)c2n1.Cl` (single isomer, unassigned) [Example 26a, 6-((1-(2-(3-Fluoro-6-methoxy-1,5-naphthyridin-4-yl)-1,2-dihydroxyethyl)-2-oxabicyclo[2.2.2]octan-4-ylamino)methyl)-2H-pyrido[3,2-b][1,4]oxazin-3(4H)-one Hydrochloride] registered a S_aureus_Smith_WT_MIC of 0.250 µg/mL.
As for `COc1ccc2ncc(F)c(C(O)C(O)C34CCC(NCc5ccc6c(n5)NC(=O)CO6)(CC3)CO4)c2n1.Cl` (single isomer, unassigned) [Example 26b, 6-((1-(2-(3-Fluoro-6-methoxy-1,5-naphthyridin-4-yl)-1,2-dihydroxyethyl)-2-oxabicyclo[2.2.2]octan-4-ylamino)methyl)-2H-pyrido[3,2-b][1,4]oxazin-3(4H)-one Hydrochloride], the S_aureus_Smith_WT_MIC was 1.00 µg/mL.
On the same count and under the same terms, in the case of `COc1ccc2ncc(F)c(C3OC(=O)OC3C34CCC(NCc5ccc6c(n5)NC(=O)CO6)(CC3)CO4)c2n1.Cl` (single isomer, unassigned) [Example 27a, 6-((1-(5-(3-Fluoro-6-methoxy-1,5-naphthyridin-4-yl)-2-oxo-1,3-dioxolan-4-yl)-2-oxabicyclo[2.2.2]octan-4-ylamino)methyl)-2H-pyrido[3,2-b][1,4]oxazin-3(4H)-one Hydrochloride] it was 0.250 µg/mL; in that of `COc1ccc2ncc(F)c(C3OC(=O)OC3C34CCC(NCc5ccc6c(n5)NC(=O)CO6)(CC3)CO4)c2n1.Cl` (single isomer, unassigned) [Example 27b, 6-((1-(5-(3-fluoro-6-methoxy-1,5-naphthyridin-4-yl)-2-oxo-1,3-dioxolan-4-yl)-2-oxabicyclo[2.2.2]octan-4-ylamino)methyl)-2H-pyrido[3,2-b][1,4]oxazin-3(4H)-one hydrochloride], 2.00 µg/mL.
With `COc1ccc2ncc(=O)n(CC(O)C34CCC(NCc5ccc6c(n5)NC(=O)CO6)(CC3)CO4)c2n1.Cl` (single isomer, unassigned) [Example 51a, 6-(((1-(1-Hydroxy-2-(6-methoxy-3-oxopyrido[2,3-b]pyrazin-4(3H)-yl)ethyl)-2-oxabicyclo[2.2.2]octan-4-yl)amino)methyl)-2H-pyrido[3,2-b][1,4]oxazin-3(4H)-one Hydrochloride], the S_aureus_Smith_WT_MIC is 0.0310 µg/mL.
Still for that read-out and setting: the figure for `COc1ccc2ncc(=O)n(CC(O)C34CCC(NCc5ccc6c(n5)NC(=O)CO6)(CC3)CO4)c2n1.Cl` (single isomer, unassigned) [Example 51b, 6-(((1-(1-hydroxy-2-(6-methoxy-3-oxopyrido[2,3-b]pyrazin-4(3H)-yl)ethyl)-2-oxabicyclo[2.2.2]octan-4-yl)amino)methyl)-2H-pyrido[3,2-b][1,4]oxazin-3(4H)-one hydrochloride] is 0.0630 µg/mL.

(Values after patent US20140243302A1, “BRIDGED BICYCLIC COMPOUNDS FOR THE TREATMENT OF BACTERIAL INFECTIONS” (priority 2011, published 2014).)
